PubChem BioAssay (NCI)
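Assay format: 96-well plates, 48-hour exposure. The concentration for 50% growth inhibition is given as GI50. At the TGI there is no net growth.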

Experiments:
Assay in all cases: NCI tumour cell line growth inhibition, 48 h
SF-268 CNS = system: SF-268 CNS
MALME-3M melanoma = system: MALME-3M melanoma
NCI/ADR-RES ovarian = system: NCI/ADR-RES ovarian
MCF7 breast = system: MCF7 breast
NCI-H522 lung = system: NCI-H522 lung
EKVX NSCLC = system: EKVX NSCLC
UACC-62 melanoma = system: UACC-62 melanoma
MDA-MB-231 breast = system: MDA-MB-231 breast
CCRF-CEM leukemia = system: CCRF-CEM leukemia
HOP-62 NSCLC = system: HOP-62 NSCLC
MDA-MB-435 = system: MDA-MB-435
KM12 colon = system: KM12 colon
HCT-15 colon = system: HCT-15 colon
SK-OV-3 ovarian = system: SK-OV-3 ovarian
RXF 393 renal = system: RXF 393 renal
MOLT-4 leukemia = system: MOLT-4 leukemia
SW-620 colon = system: SW-620 colon
OVCAR-8 ovarian = system: OVCAR-8 ovarian
HCT-116 colon = system: HCT-116 colon
OVCAR-5 ovarian = system: OVCAR-5 ovarian
M14 melanoma = system: M14 melanoma
SR leukemia = system: SR leukemia
COLO 205 colon = system: COLO 205 colon
UACC-257 melanoma = system: UACC-257 melanoma
NCI-H226 lung = system: NCI-H226 lung
HCC-2998 colon = system: HCC-2998 colon
IGROV1 ovarian = system: IGROV1 ovarian
LOX IMVI melanoma = system: LOX IMVI melanoma
HS 578T breast = system: HS 578T breast

With `COc1ccc(/C=N/C2=NNC(C)(c3ccccc3O)N2C(Cc2c[nH]c3ccccc23)C(=O)O)cc1` (configuration not stated) the GI50 (SF-268 CNS) was 3.11 µM, the TGI (SF-268 CNS) was 13.8 µM and the GI50 (MALME-3M melanoma) was 1.9 µM. For the same compound, the TGI (MALME-3M melanoma) was 6.49 µM, the GI50 (NCI/ADR-RES ovarian) was 2.76 µM and the TGI (NCI/ADR-RES ovarian) was 14 µM. For the same compound, the GI50 (MCF7 breast) was 2.23 µM, the TGI (MCF7 breast) was 10.9 µM and the GI50 (NCI-H522 lung) was 2.49 µM. For the same compound, the TGI (NCI-H522 lung) was 10 µM, the GI50 (EKVX NSCLC) was 1.96 µM and the TGI (EKVX NSCLC) was 10.8 µM. The GI50 (UACC-62 melanoma) was 1.86 µM, the TGI (UACC-62 melanoma) was 5.53 µM and the GI50 (MDA-MB-231 breast) was 1.89 µM. For the same compound, the TGI (MDA-MB-231 breast) was 8.89 µM, the GI50 (CCRF-CEM leukemia) was 3.04 µM and the TGI (CCRF-CEM leukemia) was 40.4 µM. For the same compound, the GI50 (HOP-62 NSCLC) was 2.58 µM, the TGI (HOP-62 NSCLC) was 11.9 µM and the GI50 (MDA-MB-435) was 1.7 µM. The TGI (MDA-MB-435) was 5.68 µM, the GI50 (KM12 colon) was 2.6 µM and the TGI (KM12 colon) was 10.2 µM. The GI50 (HCT-15 colon) was 2.81 µM, the TGI (HCT-15 colon) was 11.8 µM and the GI50 (SK-OV-3 ovarian) was 2.85 µM. It also gave a TGI (SK-OV-3 ovarian) of 14.5 µM, a GI50 (RXF 393 renal) of 1.27 µM and a TGI (RXF 393 renal) of 6.26 µM. It also gave a GI50 (MOLT-4 leukemia) of 3 µM, a TGI (MOLT-4 leukemia) of 13.9 µM and a GI50 (SW-620 colon) of 3.17 µM. The TGI (SW-620 colon) was 12.1 µM, the GI50 (OVCAR-8 ovarian) was 3.23 µM and the TGI (OVCAR-8 ovarian) was 16 µM. The GI50 (HCT-116 colon) was 2.52 µM, the TGI (HCT-116 colon) was 10.2 µM and the GI50 (OVCAR-5 ovarian) was 3.06 µM. It also gave a TGI (OVCAR-5 ovarian) of 19 µM, a GI50 (M14 melanoma) of 2.35 µM and a TGI (M14 melanoma) of 8.77 µM. It also gave a GI50 (SR leukemia) of 2.76 µM, a TGI (SR leukemia) of 12.4 µM and a GI50 (COLO 205 colon) of 1.86 µM. For the same compound, the TGI (COLO 205 colon) was 4.44 µM, the GI50 (UACC-257 melanoma) was 3.53 µM and the TGI (UACC-257 melanoma) was 10.8 µM. The GI50 (NCI-H226 lung) was 2.16 µM, the TGI (NCI-H226 lung) was 10.3 µM and the GI50 (HCC-2998 colon) was 3.53 µM. It also gave a TGI (HCC-2998 colon) of 13.3 µM, a GI50 (IGROV1 ovarian) of 1.72 µM and a TGI (IGROV1 ovarian) of 9.5 µM. The GI50 (LOX IMVI melanoma) was 2.68 µM, the TGI (LOX IMVI melanoma) was 10.1 µM and the GI50 (HS 578T breast) was 2.83 µM.
